Earlier results as cited in patent US20090030079A1 (priority 2007, published 2009).
Like-named read-outs stand apart in the source and are kept apart here.

What was measured:
[1] = Bi^3+, cited from earlier work
[2] = Mn^2+; cited from earlier work
[3] = cited from earlier work

| SMILES | binding stability constant (log K) [1] | binding stability constant (log K) ([1]; listed as trientine) | binding stability constant (log K) [2] | solubility ([3]; in acetone) | solubility ([3]; in alcohol) | solubility ([3]; in benzene) | solubility ([3]; in carbon tetrachloride) | solubility ([3]; in ether) | solubility ([3]; in water) |
| --- | --- | --- | --- | --- | --- | --- | --- | --- | --- |
| NCCNCCNCCN [Trientine, N,N′-bis (2-aminoethyl)-1,2-ethanediamine] | 21.9 | very strongly | 4.90 | – | – | – | – | – | – |
| CC(C)(S)[C@@H](N)C(=O)O [Penicillamine, 3-mercapto-D-valine] | – | – | – | insoluble | slightly soluble | insoluble | insoluble | insoluble | freely soluble |
